Organism: Rattus norvegicus
Assay: Open TG-GATES - Regimen: Single
Assay type: toxicity, organism-based, Sprague-Dawley
Design: regimen Single, gender Male, age 6 weeks
Conditions: in vivo, po, route gavage; for APTT / Bas / Eos / Fbg / Hb / Ht / Lym / MCV / Mono / PT / Plat / RBC / Ret / WBC / MCHC / Neu: tissue Blood; for ALP / ALT / AST / BUN / CRE / Ca / Cl / DBIL / GLC / IP / K / LDH / Na / PL / RALB / TBIL / TC / TG / TP / gamma-GTP: tissue Plasma
[1] = 0 mg/kg, 3 h, dose level Control
[2] = 0 mg/kg, 6 h, dose level Control
[3] = 0 mg/kg, 9 h, dose level Control
[4] = 0 mg/kg, 24 h, dose level Control

O=C(O)c1cccnc1 [NIACIN]
APTT [1]: 24 s
Bas [1]: 0%
Eos [1]: 0.8%
Fbg [1]: 311.4 mg/dL
Hb [1]: 13.5 g/dL
Ht [1]: 40.1%
Lym [1]: 81.2%
MCV [1]: 63.7 fL
Mono [1]: 2.2%
PT [1]: 16.4 s
Plat [1]: 118.4 x10_4/uL
RBC [1]: 630 x10_4/ul
Ret [1]: 7.9%
WBC [1]: 80.3 x10_2/uL
ALP [1]: 1666.4 IU/L
ALT [1]: 44.8 IU/L
AST [1]: 68.6 IU/L
BUN [1]: 12.8 mg/dL
CRE [1]: 0.1 mg/dL
Ca [1]: 11 mg/dL
Cl [1]: 102.6 meq/L
DBIL [1]: 0 mg/dL
GLC [1]: 182.4 mg/dL
IP [1]: 9.1 mg/dL
K [1]: 4.2 meq/L
LDH [1]: 165 IU/L
Na [1]: 140.8 meq/L
PL [1]: 138.6 mg/dL
RALB [1]: 2.9 g/dL
TBIL [1]: 0.002 mg/dL
TC [1]: 80.8 mg/dL
TG [1]: 48.2 mg/dL
TP [1]: 5.7 g/dL
gamma-GTP [1]: 1.4 IU/L
Bas [2]: 0%
Eos [2]: 0.8%
Fbg [2]: 304 mg/dL
Hb [2]: 13.6 g/dL
Ht [2]: 40.5%
Lym [2]: 76.2%
MCHC [2]: 33.7%
MCV [2]: 62.9 fL
Mono [2]: 2.8%
PT [2]: 16.5 s
Plat [2]: 116.7 x10_4/uL
RBC [2]: 643.6 x10_4/ul
Ret [2]: 7.8%
WBC [2]: 105.2 x10_2/uL
ALP [2]: 1639.8 IU/L
ALT [2]: 37.8 IU/L
AST [2]: 72.2 IU/L
BUN [2]: 12.6 mg/dL
CRE [2]: 0.1 mg/dL
Ca [2]: 10.8 mg/dL
Cl [2]: 103.6 meq/L
DBIL [2]: 0 mg/dL
GLC [2]: 196.8 mg/dL
IP [2]: 9.5 mg/dL
K [2]: 4.3 meq/L
LDH [2]: 211.2 IU/L
Na [2]: 140.2 meq/L
PL [2]: 141 mg/dL
RALB [2]: 3 g/dL
TBIL [2]: 0.008 mg/dL
TC [2]: 79.2 mg/dL
TG [2]: 68.4 mg/dL
TP [2]: 5.5 g/dL
gamma-GTP [2]: 1 IU/L
Bas [3]: 0%
Eos [3]: 0.8%
Fbg [3]: 312.8 mg/dL
Hb [3]: 13 g/dL
Ht [3]: 39.1%
Lym [3]: 81.4%
MCHC [3]: 33.3%
MCV [3]: 62.3 fL
Mono [3]: 2.6%
Neu [3]: 13.8%
Plat [3]: 119.2 x10_4/uL
RBC [3]: 627.8 x10_4/ul
Ret [3]: 8%
WBC [3]: 95.1 x10_2/uL
ALP [3]: 1434.4 IU/L
ALT [3]: 38.4 IU/L
AST [3]: 70.6 IU/L
BUN [3]: 11.8 mg/dL
CRE [3]: 0.2 mg/dL
Ca [3]: 10.7 mg/dL
Cl [3]: 104 meq/L
DBIL [3]: 0.004 mg/dL
GLC [3]: 185.4 mg/dL
IP [3]: 9.4 mg/dL
K [3]: 4.2 meq/L
LDH [3]: 177.2 IU/L
Na [3]: 140.4 meq/L
PL [3]: 129 mg/dL
RALB [3]: 3 g/dL
TBIL [3]: 0.01 mg/dL
TC [3]: 74.4 mg/dL
TG [3]: 52.2 mg/dL
TP [3]: 5.5 g/dL
gamma-GTP [3]: 1.2 IU/L
Bas [4]: 0%
Eos [4]: 1%
Fbg [4]: 327.2 mg/dL
Hb [4]: 13.2 g/dL
Ht [4]: 39.3%
Lym [4]: 81.2%
MCHC [4]: 33.6%
MCV [4]: 63.3 fL
Mono [4]: 2.6%
Neu [4]: 14%
PT [4]: 16.1 s
Plat [4]: 120.2 x10_4/uL
RBC [4]: 621.2 x10_4/ul
Ret [4]: 7.5%
WBC [4]: 115.4 x10_2/uL
ALP [4]: 1844 IU/L
ALT [4]: 45 IU/L
AST [4]: 70 IU/L
BUN [4]: 15.6 mg/dL
CRE [4]: 0.2 mg/dL
Ca [4]: 10.6 mg/dL
Cl [4]: 104.2 meq/L
DBIL [4]: 0 mg/dL
GLC [4]: 197.2 mg/dL
IP [4]: 8.2 mg/dL
K [4]: 4.3 meq/L
LDH [4]: 200 IU/L
Na [4]: 140.4 meq/L
PL [4]: 147.6 mg/dL
RALB [4]: 3 g/dL
TBIL [4]: 0.002 mg/dL
TC [4]: 74.6 mg/dL
TG [4]: 104 mg/dL
TP [4]: 5.5 g/dL
gamma-GTP [4]: 1.4 IU/L
APTT (100 mg/kg, 3 h, dose level Low): 22.6 s

From ChEMBL document CHEMBL3885861, “Open TG-GATES”
